In patent US20230321023A1, “APPLICATION OF REGULATION OF EYE SCLERA LIPID METABOLISM TO INHIBIT MYOPIA” (Wenzhou Medical University, priority 2020, published 2023):

What was measured:
FD myopia [1] = assay: FD myopia in guinea pigs, peribulbar injection of DHA, EPA or atropine; type: in vivo, guinea pig; conditions: 2 weeks; for reduction of myopia progression vs Vehicle group: high dose 3.0 μg/day
Method: (§1) The test animals were British tricolored short-haired guinea pigs aged 3 weeks. The animals were subjected to monocular form deprivation (FD) by a mask method and were randomly divided into 6 groups, which were treated by peribulbar injection with the following different substances: (1) ethanol solvent group (Vehicle); (2) low-dose DHA group (1.0 μg); (3) high-dose DHA group (3.0 μg): (4) low-dose EPA group (1.0 μg); (5) high-dose EPA group (3.0 μg); and (6) 0.1% atropine group.
The measurement methods of refraction, vitreous chamber depth and eye axis length were the same as those in Example 2.

[2] = Safety test, peribulbar injection of DHA; type: in vivo, guinea pig; conditions: peribulbar DHA alone, up to 3 μg/day, vs Vehicle control
Method: as §1

[3] = Allergy study, periocular injection in FD animals; type: in vivo; conditions: high-purity DHA 3.0 μg or DHA 3.0 μg+EPA 3.0 μg, 100 μL daily periocular, 2 weeks
Method: Animals were randomly divided into three groups: FD+cod liver oil (commercially available ω-3 polyunsaturated fatty acids) group; FD+high-purity drug group 1 (FD+DHA 3.0 μg); and FD+high-purity drug group 2 (FD+“DHA 3.0 μg+EPA 3.0 μg”), and both high-purity drug groups were at a high dose.
After applying a topical anesthetic (one drop of 0.5% propazocaine hydrochloride, Alcon Laboratories, Inc., Puurs, Belgium), 100 μL of drug was daily administered at the surrounding area of FD eyeballs at 9:00 a.m., continuing for 2 weeks. All injections were completed within 10 seconds under dark red light to minimize any possible impact of red light on induced myopic recovery.

FD myopia [4] = assay: Optimal treatment scheme: peribulbar DHA/EPA formulations in young guinea pig models with FD myopia; type: in vivo; parameters: Vitreous chamber depth (difference between experimental eye and fellow eye): unit not given here; conditions: FD guinea pigs, total mass 3 μg; for Eye axis length (difference between experimental eye and fellow eye): in mm (unit assumed); for Myopia inhibition rate: 1 W vs Veh
Text: The optimal treatment protocol or scheme applying ω-3 by means by of feeding and peribulbar injection were investigated, respectively, and some critical findings were shown, especially when the eye was subjected to topical administration, unexpected results were obtained by using DHA alone or a composition of DHA and EPA. The basic experimental procedures were as described above.
However, as the content of EPA increases to become the predominant component (i.e., DHA:EPA<1:1), the efficacy of the mixture of DHA and EPA (the total mass of ocular topical administration is 3 μg in each case) is even better than that of DHA alone, EPA alone, or a mixture of DHA and EPA containing DHA as the main component (i.e., DHA:EPA>1:1, for example, […]) and is statistically significant (Table 1 and FIG. 12). It can be seen that the mixture of DHA and EPA that uses EPA as the predominant component or the predominant active ingredient has the optimal inhibition effect of myopia and myopia-related symptoms. Overall, all the treatment protocols in this example are very effective in inhibiting the negative refraction, eye axis elongation, and vitreous cavity depth increase.

SMILES | reduced myopia rate (positive control) (FD myopia [1]; 0.1% atropine) | reduction of myopia progression vs Vehicle group (FD myopia [1]) | ACD (anterior chamber depth) [2] | LT (lens thickness) [2] | body weight [2] | adverse reactions such as allergies [3] | Refraction (difference between experimental eye and fellow eye) (FD myopia [4]; 0 W) | Vitreous chamber depth (difference between experimental eye and fellow eye) (FD myopia [4]; 0 W) | Eye axis length (difference between experimental eye and fellow eye) (FD myopia [4]; 0 W) | Myopia inhibition rate (FD myopia [4]) | Refraction (difference between experimental eye and fellow eye) (FD myopia [4]; 1 W) | Vitreous chamber depth (difference between experimental eye and fellow eye) (FD myopia [4]; 1 W) | Eye axis length (difference between experimental eye and fellow eye) (FD myopia [4]; 1 W)
CN1[C@@H]2CC[C@H]1C[C@@H](OC(=O)C(CO)c1ccccc1)C2 (stereo partly drawn) [Atropine, atropine, reference compound] | 35.6% |  |  |  |  |  |  |  |  |  |  |  | 
CC/C=C\C/C=C\C/C=C\C/C=C\C/C=C\C/C=C\CCC(=O)O [DHA, docosahexaenoic acid] |  | 35.3% | no significant ocular differences | no significant ocular differences | no significant ocular differences | no adverse reactions such as allergies | −0.23 | 0.00 | −0.01 | 31.8% | −2.95 | 0.06 | 0.06
CC/C=C\C/C=C\C/C=C\C/C=C\C/C=C\CCCC(=O)O [EPA, eicosapentaenoic acid] |  | 29.6% |  |  |  |  | −0.40 | 0.00 | 0.01 | 21.0% | −3.42 | 0.07 | 0.07
